Reference: US20220168392A1 (priority 2019, published 2022)
Values joined by “and” are separate entries in the source; they are usually repeats but may differ in a detail not shown here. Equal values may be shown once. Square brackets hold non-standard residues; d marks the D form. * marks the point of attachment. 2Nal = N[C@@H](Cc1ccc2ccccc2c1)C(=O)O; Propionyl = CCC(=O)*; Sar = CNCC(=O)O

Legend:
[1] = tested on: CD2F1 male mice exposed to TBI; assay: 30-day survival after total body irradiation (TBI) in CD2F1 mice; format: in vivo, mouse; settings: for Survival treatment / Survival Differential (Treatment-Vehicle): CD2F1 M; for Dose Reduction Factor: male CD2F1
Mouse = assay: Maximum platelet elevation relative to baseline in normal healthy mice, single escalating doses; format: in vivo; parameters: key to pharmacodynamics (PD) effect class of the dose (beneficial effects on survival): **: large pharmacodynamics (PD) effect; *: modest effect; settings: for Mouse Max Platelet Ratio: 3DP03-Piedmont-01
Source text: The ratio of the maximum platelet counts to the baseline platelet counts following single escalating doses of RWJ-800088 to mice, rats, dogs, rhesus monkeys and human healthy volunteers is shown in Table 5. The dose required to achieve a 2-3.5-fold elevation in humans is ˜100-fold lower compared to mice, ˜1,000-fold lower compared to rats and >10,000-fold lower compared to canines and NHPs. […] The species differences in potency has been described for other TPO mimetics in the literature and is attributed to differences in receptor affinity (Erickson-Miller C L, et al. Discovery and characterization of a selective, nonpeptidyl thrombopoietin receptor agonist. Exp. Hematol. 2005; 33:85-93). […] It is discovered that the dose of RWJ-800088 that produces a survival benefit and protects against vascular and organ injury is the dose that produces a 2-4 fold elevation of platelets (Table 6).

[2] = 10.5 Gy, 1 mg/kg single dose, Pre −24 hr
[3] = 10.5 Gy, 3 mg/kg single dose, Pre −24 hr, listed as TPOm, 3 mg/kg
[4] = 11 Gy, 1 mg/kg single dose, Pre −2 hr
[5] = 11 Gy, 1 mg/kg single dose, Pre −12 hr
[6] = 11 Gy, 1 mg/kg single dose, Pre −24 hr, listed as TPOm, 1 mg/kg
[7] = 11.5 Gy, 3 mg/kg single dose, Pre −24 hr
[8] = 11.75 Gy, 3 mg/kg single dose, Pre −24 hr
[9] = 12 Gy, 1 mg/kg single dose, Pre −24 hr
[10] = 12 Gy, 3 mg/kg single dose, Pre −24 hr
[11] = 12.5 Gy, 1 mg/kg single dose, Pre −24 hr
[12] = 12.5 Gy, 3 mg/kg single dose, Pre −24 hr
[13] = 13 Gy, 1 mg/kg single dose, Pre −24 hr
[14] = 13.5 Gy, 1 mg/kg single dose, Pre −24 hr
[15] = 14 Gy, 1 mg/kg single dose, Pre −24 hr

With “methoxypolyethyleneglycol20000-propionyl-L-Isoleucyl-L-Glutamyl-Glycyl-L-Prolyl-L-Threonyl-L-Leucyl-L-Arginyl-L-Glutaminyl-L-2-Naphthylalanyl-L-Leucyl-L-Alanyl-L-Alanyl-L-Arginyl-Sarcosyl-Ne-(methoxypolyethyleneglycol20000-propionyl-L-Isoleucyl-L-Glutamyl-Glycyl-L-Prolyl-L-Threonyl-L-Leucyl-L-Arginyl-L-Glutaminyl-L-2-Naphthylalanyl-L-Leucyl-L-Alanyl-L-Alanyl-L-Arginyl-Sarcosyl-)-Lysinamide ({mPEG 20 kDa-Propionyl}-IEGPTLRQ[2Nal]LAAR[Sar]K-NH2; also: dimer: second identical mPEG-propionyl chain on Lys Nε of C-terminal lysinamide) [RWJ-800088]” the Survival treatment ([1]; 10.5 Gy, 0.3 mg/kg single dose, Pre −24 hr) was 95%, the “Survival Differential (Treatment-Vehicle)” value (“Survival Differential” below) [1, 2] was 100% and the Survival treatment [1, 2] was 100%. The “Survival Differential” value [1, 3] was 90% and 100%, the Survival treatment [1, 3] was 90% and 100% and the “Survival Differential” value ([1]; 11 Gy, 0.1 mg/kg single dose, Pre −24 hr) was 54%. The Survival treatment ([1]; 11 Gy, 0.1 mg/kg single dose, Pre −24 hr, 0.1 mg/kg) was 54%, the Survival treatment ([1]; 11 Gy, 0.1 mg/kg single dose, Pre −24 hr, listed as TPOm, 0.1 mg/kg) was 54% and the “Survival Differential” value ([1]; 11 Gy, 0.3 mg/kg single dose, Pre −24 hr) was 83%. The Survival treatment ([1]; 11 Gy, 0.3 mg/kg single dose, Pre −24 hr, 0.3 mg/kg) was 83%, the Survival treatment ([1]; 11 Gy, 0.3 mg/kg single dose, Pre −24 hr, listed as TPOm, 0.3 mg/kg) was 83% and the “Survival Differential” value [1, 4] was 17%. The Survival treatment [1, 4] was 17%, the “Survival Differential” value [1, 5] was 100% and the Survival treatment [1, 5] was 100%. For the same substance, the Survival treatment ([1]; 11 Gy, 1 mg/kg single dose, Pre −24 hr, 1 mg/kg) was 96%, the “Survival Differential” value [1, 6] was 71% and 96% and 100% and the Survival treatment [1, 6] was 71% and 96% and 100%. For the same substance, the “Survival Differential” value ([1]; 11 Gy, 3 mg/kg single dose, Pre −24 hr) was 100%, the Survival treatment ([1]; 11 Gy, 3 mg/kg single dose, Pre −24 hr, 3 mg/kg) was 100% and the Survival treatment ([1]; 11 Gy, 3 mg/kg single dose, Pre −24 hr, listed as TPOm, 3 mg/kg) was 100%. The “Survival Differential” value [1, 7] was 92%, the Survival treatment [1, 7] was 92% and the “Survival Differential” value [1, 8] was 75%. For the same substance, the Survival treatment [1, 8] was 75%, the “Survival Differential” value [1, 9] was 88% and the Survival treatment [1, 9] was 88%. For the same substance, the “Survival Differential” value [1, 10] was 83%, the Survival treatment [1, 10] was 83% and the “Survival Differential” value [1, 11] was 54%. For the same substance, the Survival treatment [1, 11] was 54%, the “Survival Differential” value [1, 12] was 46% and the Survival treatment [1, 12] was 46%. The “Survival Differential” value [1, 13] was 42%, the Survival treatment [1, 13] was 42% and the “Survival Differential” value [1, 14] was 13%. The Survival treatment [1, 14] was 13%, the “Survival Differential” value [1, 15] was 1% and the Survival treatment [1, 15] was 1%. The “enhancement in survival efficacy” value ([1]; CD2F1 male, 1 mg/kg administered 24 h prior to radiation exposure (FIG. 13)) was about 100%, the survival ([1]; CD2F1 male, 9.35 Gy, 0.3 mg/kg 24 h pre-TBI (FIG. 3A)) was 83% and the “survival, 3-dose regimen” value ([1]; CD2F1 male, 9.35 Gy, 0.3 mg/kg/dose SC at 24 h+48 h+72 h post-TBI) was 50%. The “survival, 2-dose regimen” value ([1]; CD2F1 male, 9.35 Gy, 0.3 mg/kg/dose SC at 24 h+48 h post-TBI) was 54%, the survival ([1]; CD2F1 male, 9.75 Gy, RWJ-800088 treated groups 0.1-3 mg/kg 24 h pre-TBI (FIG. 3B)) was 92-100% and the percent survival ([1]; CD2F1 male, 10.5 Gy, range of doses 0.1-3 mg/kg 24 h pre-TBI (FIG. 3C)) was 90-100%. The Effects ([1]; Mice, whole body irradiation, whole wrapped cell: Enhanced survival, mitigation against thrombocytopenia, anemia, reduced adhesion protein expression on endothelial cells) was “Enhanced survival,”, the “Dose Reduction Factor” value ([1]; 1 mg/kg 24 h post-TBI (FIG. 14)) was 1.05 and the “Dose Reduction Factor” value ([1]; 1 mg/kg 24 h pre-TBI (FIG. 15)) was 1.38. The “optimum single dose as mitigator of radiation induced mortality in mice” value ([1]; post-TBI administration) was 0.3 to 1.0 mg/kg, the “Mouse Max Platelet Ratio” value (Mouse; dose 10 μg/kg) was 0.9 ± 0.6 and the “Mouse Max Platelet Ratio” value (Mouse; dose 30 μg/kg) was 1.8 ± 0.4. For the same substance, the “Mouse Max Platelet Ratio” value (Mouse; dose 100 μg/kg) was 2.5 ± 1.1, the “Mouse Max Platelet Ratio” value (Mouse; dose 300 μg/kg) was 3.9 ± 0.9 and the “Mouse Max Platelet Ratio” value (Mouse; dose 1000 μg/kg) was 4.3 ± 0.5. For the same substance, the “Mouse Max Platelet Ratio” value (Mouse; dose 3000 μg/kg) was 3.4 ± 1, the “Dose for 2.0-4x Platelet Elevation in Healthy Subjects” value (Mouse; Mice) was at least 0.1 mg/kg and the “pharmacodynamics (PD) effect class of the dose (beneficial effects on survival)” value (shortened to “pharmacodynamics (PD) effect class”) (Mouse; Mouse, dose 100 μg/kg) was “**”. For the same substance, the “Average of the Maximum Platelet Elevation/Baseline Platelet Counts” value (Mouse; Mouse, dose 300 μg/kg) was 3.9, the “pharmacodynamics (PD) effect class” value (Mouse; Mouse, dose 300 μg/kg) was “**” and the “pharmacodynamics (PD) effect class” value (Mouse; Mouse, dose 1000 μg/kg) was “**”. The “pharmacodynamics (PD) effect class” value (Mouse; Mouse, dose 3000 μg/kg) was “**”, the “Platelet Elevation in Non-Irradiated Animals (fold increase over baseline)” value (Mouse; TPOm dose 0.1 mg/kg) was 2.50 fold increase over baseline and the “Platelet Elevation in Non-Irradiated Animals (fold increase over baseline)” value (Mouse; TPOm dose 0.3 mg/kg) was 3.90 fold increase over baseline. The “Platelet Elevation in Non-Irradiated Animals (fold increase over baseline)” value (Mouse; TPOm dose 1 mg/kg) was 4.30 fold increase over baseline, the “Platelet Elevation in Non-Irradiated Animals (fold increase over baseline)” value (Mouse; TPOm dose 2 mg/kg, imputed as mean of the 1 mg/kg and 3 mg/kg cohorts) was 3.85 fold increase over baseline and the “Platelet Elevation in Non-Irradiated Animals (fold increase over baseline)” value (Mouse; TPOm dose 3 mg/kg) was 3.40 fold increase over baseline.
